Measured values as given in US5508310A, “Immunopotentiatory agents and physiologically acceptable salts thereof” (Burroughs Wellcome Co., priority 1992, dated 1996).
Where “and” joins values, the source holds several entries; their conditions need not be identical. Identical values can stand only once.

Experiments:
[1] = system: mononuclear cell fraction of blood from healthy donors immunised with tetanus toxoid; format: cell-based, human (healthy donors)
[2] = system: Pneumocystis carinii; conditions: AIDS patients; Wofsy 1986; cited from earlier work
[3] = system: mouse colon adenocarcinoma 38 (MCA38); assay: Antitumour activity: outgrowth of subcutaneously implanted mouse colon adenocarcinoma 38 (MCA38) in C57BL/6 mice; format: in vivo, mouse (C57BL/6); conditions: for Tumour weight on day 24 after tumour implantation (individual mice): intraperitoneally, every alternate day, 9 doses, individual animal values; for Mean % red. (tumour weight) / Median % red. (tumour weight): vs controls (group A); for Mean tumour weight on day 24: controls mean 0.635; for Median tumour weight on day 24: controls median 0.636
Procedure: The activity of the tucaresol was evaluated against the outgrowth of subcutaneously implanted mouse colon adenocarcinoma 38 (MCA38) in female C57BL/6 mice, using the following protocol:
Day 0 Fifteen, female and 16 male C57BL/6 mice each im-
planted subcutaneously with one 2 mm cube of tumour.
Mice randomized and divided into three groups -
Group A, 5 females and 5 males, Group B, 5 females
and 5 males, Group C, 5 females and 6 males.
Day 5 Test groups B and C each dosed with 589C80 (1 mg or
to 0.2 mg per mouse dissolved in 0.2 ml PBS,
intraperitoneally) once every alternate day (total of 9
doses). Control mice (group A) given PBS alone.
All mice killed, tumours excised and weighed. Mean and
median tumour weight in test group compared with
Tucaresol was dissolved in PBS by dropwise addition of 1M KOH to pH 10.0 followed by dropwise addition of conc. HCL to return pH to neutral.
Dosing schedule where drug was given on alternate days was chosen in order to extend the dosing period over 14 rather than 7 days. By so doing tumours were exposed to the drug from day 13 right up until […] i.e. 2 days before the experiment was terminated.

For `O=CCCc1ccccc1` [Compound 5, 3-Phenylproponion-aldhyde], the “IC50 Ratio with 4-Hydroxyphenylacetaldehyde” value [1] was 40.

In the case of trimethoprim-sulphamethoxazole, the “Effectiveness in Pneumocystis carinii pneumonia” value [2] is listed as 50-70%.

In the case of `N=C(N)c1ccc(OCCCCCOc2ccc(C(=N)N)cc2)cc1` [pentamidine], the “Effectiveness in Pneumocystis carinii pneumonia” value [2] is given as 50-70% and the “Incidence of adverse reactions” value [2] is given as “around 50%”.

In the case of `O=Cc1c(O)cccc1OCc1ccc(C(=O)O)cc1` [Tucaresol], the “Tumour weight on day 24 after tumour implantation (individual mice)” value ([3]; Group B, 1.0 mg/mouse) is reported as 0.740 grammes and 0.695 grammes and 0.358 grammes and 0.303 grammes and 0.298 grammes and 0.090 grammes and 0.079 grammes and 0.038 grammes and 0.022 grammes, the “Mean % red. (tumour weight)” value ([3]; Group B, 1.0 mg/mouse) is reported as 54.2% and the “Median % red. (tumour weight)” value ([3]; Group B, 1.0 mg/mouse) is reported as 53.15%. The “Mean tumour weight on day 24” value ([3]; Group B, 1.0 mg/mouse, S.D. 0.272) was 0.291 grammes, the “Median tumour weight on day 24” value ([3]; Group B, 1.0 mg/mouse) was 0.298 grammes and the “Tumour weight on day 24 after tumour implantation (individual mice)” value ([3]; Group C, 0.2 mg/mouse) was 0.802 grammes and 0.272 grammes and 0.230 grammes and 0.197 grammes and 0.181 grammes and 0.126 grammes and 0.085 grammes and 0.029 grammes and 0.019 grammes and 0.006 grammes. The “Mean % red. (tumour weight)” value ([3]; Group C, 0.2 mg/mouse) was 70.4%, the “Median % red. (tumour weight)” value ([3]; Group C, 0.2 mg/mouse) was 80.19% and the “Mean tumour weight on day 24” value ([3]; Group C, 0.2 mg/mouse, S.D. 0.222) was 0.188 grammes. For the same molecule, the “Median tumour weight on day 24” value ([3]; Group C, 0.2 mg/mouse) was 0.126 grammes and the “Inhibition of outgrowth of subcutaneously implanted MCA38” value ([3]; syngeneic C57BL/6 mice, result in words) was “inhibited the outgrowth”.
